Test system: S. neurona merozoites
Test: Ionophore A23187-stimulated merozoite release from infected host cell monolayers
Format: cell-based, Sarcocystis neurona
Experimental: A stock solution of calcium ionophore A23187 (Sigma) was prepared in dimethylsulfoxide to a final concentration of 1 mg/ml and stored at −20° C. Infected cell monolayers (see example 1) at 12 days post infection were washed three times with PBS or Hanks Balanced Salts Solution (HBSS), and 10 ml of A23187 (1 μM in HBSS) was added to the washed monolayer and incubated at 37° C. for 40 min. in 5% CO2, 95% air. Free merozoites were collected by centrifugation and washed in PBS as above. Parasites released by this method were examined by density gradient centrifugation, but further separation from host cell debris by density gradient centrifugation was not routinely necessary. For further purification, parasites recovered from the supernatant were isolated from host cell debris on a discontinuous buoyant density gradient using Iodixanol (Optiprep) in PBS or HBSS. Merozoites were suspended gently in 1.0 ml PBS and were layered onto a preformed, three step discontinuous gradient with layers of 1.03, 1.04 and 1.06 g/ml in a 15 ml round bottom centrifuge tube. The gradient was centrifuged at 1000×g for 25 min at 20° C. with the brake off. Fractions containing particulate material at each interface were collected and examined microscopically. The fractions(s) containing significant amounts of merozoites were collected for use.
Lung cells at 60% confluence were seeded at a density of 0.1 merozoites per host cell and parasite growth was monitored microscopically for 30 days. Free parasites were not observed until 10 days post infection. During most of the period of observation, the percentage of extracellular parasites was less than 10%. On day 28, the largest number of free parasites was counted; but the next day the numbers of extracellular parasites was back to less than 10%. Duplicate 75 cm flasks were grown for 12 days in HL cells and treated with HBSS or HBSS with 1 μM A23187. Free parasites were collected by centrifugation and counted with a hemocytometer.

CNc1ccc2oc(C[C@H]3O[C@@]4(CC[C@H]3C)O[C@H]([C@H](C)C(=O)c3ccc[nH]3)[C@H](C)C[C@H]4C)nc2c1C(=O)O [A23187]
Merozoite release in response to ionophore treatment (infected GT, HFF, CHO, BHK and primary EM cells, same conditions): refractory
Enhancement of collection of parasites free in the culture medium (infected host cells incubated 40 min in 1 μM A23187): 90 fold
Merozoite release in response to ionophore treatment (parasitized BM, BM0617, HL, BT and ED cells): released merozoites
